Molecules are shown by their SMILES.

This is an account of results in a melting point compilation (Tetko et al.).

For orientation: melting point means the temperature, or range, at which the solid turns liquid. As to `COc1ccc(NC(=O)C2(N)CCCC2)cc1OC`, the melting point lay in the range of 116 to 118 °C.

Compound `O=C(O)c1ccccc1NCc1cccnc1` gave a melting point of 189 to 191 °C.

`COc1ccc(N)cc1Br`: the melting point fell in the range of 58 to 60 °C.

Turning to `COc1ccc(OCC(=O)NN)cc1`, the melting point was 142 to 144 °C.

As for `CC(=O)N1CCN(Cc2cccc(N)n2)CC1`, the melting point was in the range of 169 to 171 °C.

Regarding `Cc1nonc1C(=O)O`, the melting point was 69 to 71 °C.

On to `Cc1ccc(Nc2nnc(S)s2)cc1Cl`, for which the melting point fell in the range of 210 to 212 °C.

As to `Cc1ccc(O)c(C(=O)Nc2ccncc2)c1`, the melting point was in the range of 249 to 251 °C.

In turn, `O=C1C2CC1CN(Cc1ccccc1)C2` displayed a melting point of 64 to 66 °C.

Compound `O=S(=O)(F)CC1CCOCC1` showed a melting point of 53 to 55 °C.

As for `Nc1ccc(-c2nc3ccccc3[nH]2)cc1`, the melting point lay within 218 to 222 °C.

With `CC(Cl)C(=O)c1ccc(Br)cc1` (stereo not drawn), the melting point fell in the range of 54 to 56 °C.

In turn, `CCOc1ccccc1C(N)=S` showed a melting point of 115 to 117 °C.

On to `CC(C)Oc1ncc(C(=O)O)cc1Cl`, for which the melting point is 171 to 173 °C.

Regarding `CC(C)(C)n1cnnc1SCC(=O)O`, the melting point is 161 to 163 °C.

In the case of `NC1=NC(=O)NC12CCCC2`, the melting point fell in the range of 250 to 252 °C.

The compound `CN1CCN(c2ccc(C=O)cc2F)CC1` returned a melting point of 65 to 67 °C.

Compound `O=C(O)c1cnn2c1CCCC2` had a melting point of 214 to 216 °C.

`Cc1cc(C(=O)N2CCCCC2C)ccc1N` (stereo not drawn) showed a melting point of 123 to 125 °C.

`Cn1c(=O)[nH]c2cnccc21` displayed a melting point of 266 to 268 °C.

In turn, `CC(=O)Oc1ccc(C)cc1C(=O)O` showed a melting point of 154 to 156 °C.

Take `N#CCc1nc(N)nc(N)n1`: the melting point was in the range of 280 to 282 °C.

Take `O=C(O)c1cc(Br)cc(Cl)c1O`: the melting point is 207 to 209 °C.

Turning to `N#Cc1ccc(F)c(CO)c1`, the melting point was 48 to 50 °C.

Compound `CCOC(=O)CC(C)(O)c1cccc(O)c1` (stereo not drawn) displayed a melting point of 85 to 87 °C.

For `Cc1cc(C)c2cc(C(=O)O)[nH]c2c1C`, the melting point fell in the range of 227 to 229 °C.

On to `CC(=O)Oc1cc(C)ccc1C(=O)O`, for which the melting point fell in the range of 139 to 141 °C.

Compound `COc1ccc(CCNC(N)=S)cc1OC` gave a melting point of 159 to 161 °C.

Turning to `O=C1COc2cc(S)c(Cl)cc2N1`, the melting point lay within 256 to 258 °C.

As for `Cn1cn[nH]c1=O`, the melting point lay in the range of 134 to 136 °C.

Compound `O=C(CCl)Nc1cccc(Cl)c1` had a melting point of 70 to 72 °C.

In the case of `O=C1OCC=C1Br`, the melting point lay within 53 to 55 °C.

Compound `O=Cc1sc(Nc2ccccc2)nc1Cl` yielded a melting point of 164 to 166 °C.

On to `O=C(O)c1ccn(-c2ccccc2[N+](=O)[O-])n1`, for which the melting point is 223 to 225 °C.

The compound `CC1Cc2ccc(Br)cc2C1=O` (stereo not drawn) yielded a melting point of 69 to 71 °C.

With `c1ccc(Nc2nnns2)cc1`, the melting point lay in the range of 144 to 146 °C.

The compound `O=C(O)c1cnn(Cc2ccccc2)c1` returned a melting point of 149 to 151 °C.

For the compound `CC(C)NS(=O)(=O)c1cccc(CN)c1`, the melting point was 98 to 100 °C.

Compound `Cc1cc(C(=O)NN)c2ccccc2n1` came in with a melting point of 177 to 179 °C.

Take `COc1cccc(-n2c(C)nnc2SCC(=O)O)c1`: the melting point fell in the range of 130 to 132 °C.

Take `O=C(O)c1ncccc1OCC(F)(F)F`: the melting point lay within 116 to 118 °C.

As to `CCOC(=O)c1sc2nc(CN3CCOCC3)nc(Cl)c2c1C`, the melting point was in the range of 110 to 112 °C.

`Cc1ccccc1NCC(=O)N1CCCCC1` had a melting point of 78 to 80 °C.

Compound `CCOc1ccc(C(N)=S)cc1` registered a melting point of 115 to 117 °C.

In the case of `CC(Nc1ccc(N(C)C)cc1)c1ccccn1` (stereo not drawn), the melting point was in the range of 121 to 123 °C.

Take `COc1cccc(Nc2nnc(S)s2)c1`: the melting point lay within 208 to 210 °C.

The compound `O=C(O)C(F)(F)c1ccc([N+](=O)[O-])cc1` yielded a melting point of 129 to 131 °C.

As for `N#Cc1cc(Cl)ccn1`, the melting point is 81 to 85 °C.

In turn, `O=C(O)c1csc(Cc2cccc(F)c2)n1` registered a melting point of 149 to 151 °C.

`Nc1cc(C(F)(F)F)ccc1C(=O)O` gave a melting point of 175 to 176 °C.

Consider `CC(C)(C)Nc1cc(C(=O)O)c(N)cc1F`, for which the melting point lay in the range of 199 to 201 °C.

With `CC(=O)c1cc([N+](=O)[O-])ccc1C`, the melting point lay within 50 to 52 °C.

Take `Cc1ccccc1COc1ccccc1C(=O)O`: the melting point lay within 103 to 105 °C.

Turning to `N#CCC(=O)c1ccc(OC(F)F)cc1`, the melting point was 80 to 82 °C.

Turning to `CN1CC(=O)N(CC(=O)O)C1=O`, the melting point was 139 to 141 °C.

With `NNC(=O)c1cccc2cccnc12`, the melting point was in the range of 88 to 90 °C.

With `CCOC=C1C(=O)N(c2ccc(Cl)cn2)C(=O)c2ccccc21`, the melting point was 200 to 202 °C.

The compound `CC1(c2ccc(F)cc2)NC(=O)N(CC(=O)O)C1=O` (stereo not drawn) came in with a melting point of 167 to 169 °C.

With `O=[N+]([O-])c1ccc(N2CCNCC2)nc1`, the melting point lay within 128 to 130 °C.

Consider `O=C1CN(C(c2ccccc2)c2ccccc2)C1`, for which the melting point lay within 78 to 80 °C.

In turn, `Nc1nn2cc(-c3ccccc3)nc2s1` returned a melting point of 183 to 185 °C.

The compound `Cc1cc(N)c(N)cc1C` had a melting point of 127 to 129 °C.

In the case of `O=S(=O)(NCCBr)c1ccccc1`, the melting point was 54 to 56 °C.

As to `O=C(O)c1cc2c(OC(F)F)cccc2[nH]1`, the melting point lay in the range of 215 to 217 °C.

Regarding `COc1ccccc1NC(=O)COc1ccc(C(=O)O)cc1OC`, the melting point was 184 to 186 °C.

With `Cn1cc(S(=O)(=O)Cl)c([N+](=O)[O-])n1`, the melting point is 70 to 72 °C.

With `Cc1ccc(O)c(S(=O)(=O)N(C)C)c1`, the melting point lay in the range of 76 to 78 °C.

`O=S(=O)(Cl)c1cnc(Cl)c(Cl)c1`: the melting point fell in the range of 46 to 48 °C.

Take `ClCc1coc(-c2ccc(I)cc2)n1`: the melting point was 129 to 131 °C.

With `Oc1ccc(/C=C/c2ccc3ccccc3n2)cc1`, the melting point lay within 289 to 291 °C.

With `Cn1cc(N2CCC(Br)C2=O)cn1` (stereo not drawn), the melting point was in the range of 136 to 138 °C.

`O=C(c1ccc(F)cc1Cl)N1CCNCC1` showed a melting point of 75 to 77 °C.

Take `CC(C)(C)OC(=O)NC1CCN(C(=O)CC(F)(F)F)CC1`: the melting point was in the range of 147 to 149 °C.

On to `COc1cc(CC#N)cc(Cl)c1OCC(F)(F)F`, for which the melting point was 98 to 100 °C.

The compound `O=C1NC(=O)C2(CCSCC2)N1` displayed a melting point of 265 to 267 °C.

`O=C(O)C1CCN(S(=O)(=O)c2ccc(Br)s2)CC1` registered a melting point of 166 to 168 °C.

On to `O=C(O)c1cnoc1-c1cccs1`, for which the melting point was in the range of 198 to 200 °C.

On to `O=S(=O)(Cl)Cc1cc(-c2ccc(F)cc2)no1`, for which the melting point lay in the range of 108 to 110 °C.

The compound `O=C(O)C1CC1c1ccc2c(c1)OCCO2` (stereo not drawn) had a melting point of 160 to 162 °C.

`CN(C)/C=C(/C#N)C(N)=O` yielded a melting point of 166 to 168 °C.

For `Nc1nc(CCl)nc(Nc2ccccc2)n1`, the melting point is 139 to 141 °C.

In turn, `Cc1ccn2c(N)nnc2c1` yielded a melting point of 287 to 289 °C.

Compound `Cc1cc(C)c2nc(NN)cc(C)c2c1` registered a melting point of 113 to 115 °C.

The compound `O=[N+]([O-])c1ccc(S(=O)(=O)C(F)(F)F)cc1` showed a melting point of 81 to 83 °C.

The compound `c1cc(-c2ccsc2)n[nH]1` returned a melting point of 110 to 112 °C.

`CCCCc1ccc(CC(=O)O)cc1` came in with a melting point of 78 to 80 °C.

Compound `CS(=O)(=O)c1ccc(C(N)=O)cc1` yielded a melting point of 226 to 228 °C.

With `O=Cc1cccc(OCCCC(=O)O)c1`, the melting point lay within 58 to 60 °C.

Take `Nc1nnc(-c2ccc(Br)cc2)o1`: the melting point was in the range of 273 to 275 °C.

The compound `CC(Nc1ncc(C(=O)O)cc1Cl)c1cccnc1` (stereo not drawn) displayed a melting point of 184 to 186 °C.

For `COC(=O)c1cc(S(=O)(=O)Cl)ccc1O`, the melting point lay in the range of 81 to 83 °C.

With `COc1ccc(-c2cc3ncnc(Cl)c3s2)cc1`, the melting point was 179 to 181 °C.

As to `Cc1ccc(C(C)C)c2c1C(=O)CCO2`, the melting point was in the range of 36 to 38 °C.

For `Nc1nnc(C(F)(F)F)[nH]1`, the melting point fell in the range of 155 to 157 °C.

Compound `N#Cc1cccc(-n2cccn2)c1` yielded a melting point of 61 to 63 °C.

Regarding `COC(=O)c1ccc(F)c(CBr)c1`, the melting point was in the range of 50 to 52 °C.

In the case of `CCc1cccc(NC(N)=S)c1`, the melting point lay within 85 to 87 °C.

As for `c1nc(N2CCNCC2)c2sccc2n1`, the melting point is 98 to 100 °C.

Turning to `O=C(O)CCn1cc(Br)ccc1=O`, the melting point lay within 172 to 174 °C.

Regarding `O=C(Nc1ccccc1)c1cccc(-n2ccnc2S)c1`, the melting point was in the range of 228 to 230 °C.

`COc1ccc(CCNC(N)=S)cc1` registered a melting point of 166 to 168 °C.

Regarding `COC(=O)c1cc(-c2cccc(C(F)(F)F)c2)ccc1N`, the melting point lay within 72 to 74 °C.

In the case of `COc1ccc(C(=O)O)cc1S(=O)(=O)NC1CCCC1`, the melting point was 216 to 218 °C.

The compound `COc1ccc(/C=C/C(=O)O)cc1S(N)(=O)=O` had a melting point of 257 to 259 °C.

For `CS(=O)(=O)c1ccccc1NC(=O)CCl`, the melting point lay in the range of 118 to 120 °C.

Take `COC(=O)c1ccc(S(=O)(=O)Cl)c(Cl)c1`: the melting point was in the range of 64 to 66 °C.

In turn, `COc1cc(CCl)c(OC)cc1Br` showed a melting point of 65 to 67 °C.

Compound `CCCOc1ccc(/C=C/C(=O)O)cc1` had a melting point of 179 to 181 °C.

`O=C(CCl)NCC(=O)c1cccs1` had a melting point of 133 to 135 °C.

For `Cc1cccc(N)c1C(=O)N1CCCC1`, the melting point is 87 to 89 °C.

The compound `CC(C)C(Br)C(=O)NC1CCS(=O)(=O)C1` (stereo not drawn) yielded a melting point of 139 to 141 °C.

For the compound `CN(C)Cc1ccc(C(=O)NN)o1`, the melting point is 116 to 118 °C.

Consider `O=C(O)c1ccccc1OCc1cscn1`, for which the melting point was in the range of 117 to 121 °C.

With `NC(=O)c1cc(C(=O)O)c[nH]1`, the melting point fell in the range of 344 to 346 °C.

The compound `Cc1ccccc1SC(C(=O)O)c1ccccc1` (stereo not drawn) came in with a melting point of 100 to 102 °C.

The compound `CN1NC=C2CN=C(Cl)N=C21` returned a melting point of 189 to 191 °C.

As for `O=C(O)c1cccc(Nc2cnccn2)c1`, the melting point was in the range of 239 to 241 °C.

For the compound `O=C(CCl)Nc1cc(C(F)(F)F)ccc1Cl`, the melting point lay in the range of 71 to 73 °C.

With `Cc1cc(O)cc(=O)n1C(C)C(=O)O` (stereo not drawn), the melting point fell in the range of 258 to 260 °C.

Compound `O=C(O)c1ccc(Oc2ccc(F)cc2[N+](=O)[O-])cc1` returned a melting point of 179 to 181 °C.

Regarding `CCOC(=O)c1cnc2c(OC)cc(OC)cc2c1Cl`, the melting point fell in the range of 148 to 150 °C.

With `COCc1nc(Cl)cc(Cl)n1`, the melting point fell in the range of 43 to 45 °C.

On to `Fc1ccc(-n2nc(CCl)c3c2CCC3)cc1`, for which the melting point is 101 to 103 °C.
